The values that follow come from PubChem BioAssay AID248 (DTP/NCI, 2004).

The assay deals with L1210 leukemia ip in BDF1 mice, survival T/C. Put plainly: NCI In Vivo Anticancer Drug Screen. Data for tumor model L1210 Leukemia (intraperitoneal) in B6D2F1 (BDF1) mice. As to conditions: endpoint: mean survival time, higher = longer survival. The gist of the method: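 Read-out is survival time, reported as the treated-group measurement over the vehicle-control measurement.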

Setting [1] is: dose: 100.0 mg/kg/injection, schedule: Q04DX002 (ip), vehicle: Klucel (hydroxypropylcellulose) (HPC).
Where [2] appears, read: dose: 200.0 mg/kg/injection, schedule: Q04DX002 (ip), vehicle: Klucel (hydroxypropylcellulose) (HPC).
The mark [3] stands for this setting: dose: 400.0 mg/kg/injection, schedule: Q04DX002 (ip), vehicle: Klucel (hydroxypropylcellulose) (HPC).
[4] abbreviates: dose: 100.0 mg/kg/injection, schedule: Q04DX003 (ip), vehicle: Klucel (hydroxypropylcellulose) (HPC).

Values joined by “and” are separate entries in the source; they are usually repeats but may differ in a detail not shown here. Equal values may be shown once. Inconclusive results and toxic doses are left out.

As for `N=C(N)c1nn(C2OC(CO)C(O)C2O)c2ncnc(N)c12` (configuration not stated), the T/C is 102 % of control (dose: 3.12 mg/kg/injection, schedule: Q01DX009 (ip), vehicle: Klucel (hydroxypropylcellulose) (HPC)); 124 % of control (dose: 6.25 mg/kg/injection, schedule: Q01DX009 (ip), vehicle: Klucel (hydroxypropylcellulose) (HPC)); 159 % of control (dose: 9.0 mg/kg/injection, schedule: Q01DX005 (ip), vehicle: saline); 115 % of control (dose: 12.5 mg/kg/injection, schedule: Q01DX009 (ip), vehicle: Klucel (hydroxypropylcellulose) (HPC)); 185 % of control (dose: 15.0 mg/kg/injection, schedule: Q01DX005 (ip), vehicle: saline); 201 % of control (dose: 25.0 mg/kg/injection, schedule: Q01DX005 (ip), vehicle: saline). Besides, the T/C (dose: 42.0 mg/kg/injection, schedule: Q01DX005 (ip), vehicle: saline) was 204 % of control.

For `COc1ccccc1NC(=O)c1ccco1`, the T/C (dose: 12.5 mg/kg/injection, schedule: Q04DX002 (ip), vehicle: Klucel (hydroxypropylcellulose) (HPC)) is 102 % of control; the T/C (dose: 25.0 mg/kg/injection, schedule: Q04DX002 (ip), vehicle: Klucel (hydroxypropylcellulose) (HPC)) is 102 % of control; the T/C (dose: 50.0 mg/kg/injection, schedule: Q04DX002 (ip), vehicle: Klucel (hydroxypropylcellulose) (HPC)) is 97 % of control; the T/C under setting [1] is 95 % of control; the T/C under setting [2] is 106 % of control; the T/C under setting [3] is 103 % of control.

With `CC(C)(O)OC1COC(C2CS2)C1O` (configuration not stated), the T/C is 94 % of control under setting [1], 98 % of control under setting [2] and 102 % of control under setting [3].

As for `C=CCOCC(O)CN(C)CCCCCCCCCCCC` (configuration not stated), the T/C runs as follows: (dose: 6.0 mg/kg/injection, schedule: Q04DX003 (ip), vehicle: Klucel (hydroxypropylcellulose) (HPC)) 98 % of control; (dose: 12.0 mg/kg/injection, schedule: Q04DX003 (ip), vehicle: Klucel (hydroxypropylcellulose) (HPC)) 96 % of control; (dose: 25.0 mg/kg/injection, schedule: Q01DX009 (ip), vehicle: Klucel (hydroxypropylcellulose) (HPC)) 109 % of control; (dose: 25.0 mg/kg/injection, schedule: Q04DX003 (ip), vehicle: Klucel (hydroxypropylcellulose) (HPC)) 93 % of control and 96 % of control; (dose: 50.0 mg/kg/injection, schedule: Q01DX009 (ip), vehicle: Klucel (hydroxypropylcellulose) (HPC)) 109 % of control; under setting [4], 96 % of control.

As to `Clc1ccccc1OCCNC1CC1`, the T/C reads like this: (dose: 6.25 mg/kg/injection, schedule: Q01DX009 (ip), vehicle: saline) 101 % of control; (dose: 12.5 mg/kg/injection, schedule: Q01DX009 (ip), vehicle: saline) 105 % of control; (dose: 25.0 mg/kg/injection, schedule: Q01DX009 (ip), vehicle: saline) 97 % of control; (dose: 25.0 mg/kg/injection, schedule: Q04DX003 (ip), vehicle: saline) 102 % of control; (dose: 50.0 mg/kg/injection, schedule: Q01DX009 (ip), vehicle: saline) 103 % of control; (dose: 50.0 mg/kg/injection, schedule: Q04DX003 (ip), vehicle: saline) 100 % of control. Besides, the T/C (dose: 100.0 mg/kg/injection, schedule: Q01DX009 (ip), vehicle: saline) is 105 % of control and the T/C (dose: 100.0 mg/kg/injection, schedule: Q04DX003 (ip), vehicle: saline) is 102 % of control.

Consider `COc1ccc(/C=C\C(=O)/C=C/c2ccc(OC)cc2)cc1`, for which the T/C (dose: 100.0 mg/kg/injection, schedule: Q01DX009 (ip), vehicle: Klucel (hydroxypropylcellulose) (HPC)) is 98 % of control; the T/C under setting [4] was 94 % of control; the T/C (dose: 200.0 mg/kg/injection, schedule: Q01DX009 (ip), vehicle: Klucel (hydroxypropylcellulose) (HPC)) was 98 % of control; the T/C (dose: 200.0 mg/kg/injection, schedule: Q04DX003 (ip), vehicle: Klucel (hydroxypropylcellulose) (HPC)) is 94 % of control; the T/C (dose: 400.0 mg/kg/injection, schedule: Q01DX009 (ip), vehicle: Klucel (hydroxypropylcellulose) (HPC)) is 88 % of control; the T/C (dose: 400.0 mg/kg/injection, schedule: Q04DX003 (ip), vehicle: Klucel (hydroxypropylcellulose) (HPC)) is 100 % of control.

As for `O=C(Sc1ccccc1)c1ccccc1`, the T/C by setting is: (dose: 50.0 mg/kg/injection, schedule: Q01DX001 (ip), vehicle: carboxymethylcellulose (CMC)) 105 % of control; (dose: 100.0 mg/kg/injection, schedule: Q01DX001 (ip), vehicle: carboxymethylcellulose (CMC)) 105 % of control; (dose: 200.0 mg/kg/injection, schedule: Q01DX001 (ip), vehicle: carboxymethylcellulose (CMC)) 108 % of control; (dose: 400.0 mg/kg/injection, schedule: Q01DX001 (ip), vehicle: carboxymethylcellulose (CMC)) 100 % of control.

For `C/C=C(\C)C(=O)Nc1cccc(OC(=O)NC)c1`, the T/C is, setting by setting: (dose: 100.0 mg/kg/injection, schedule: Q01DX009 (ip), vehicle: saline with Tween-80) 91 % of control; (dose: 200.0 mg/kg/injection, schedule: Q01DX009 (ip), vehicle: saline with Tween-80) 88 % of control; (dose: 400.0 mg/kg/injection, schedule: Q01DX009 (ip), vehicle: saline with Tween-80) 91 % of control.

On to `CN=C(N)c1ccc(N=C(N)c2ccc(N=C(N)c3ccc(C(N)=NC)cc3)cc2)cc1`, for which the T/C is, setting by setting: (dose: 3.7 mg/kg/injection, schedule: Q01DX001 (ip), vehicle: water) 108 % of control; (dose: 5.3 mg/kg/injection, schedule: Q01DX001 (ip), vehicle: water) 103 % of control; (dose: 8.0 mg/kg/injection, schedule: Q01DX001 (ip), vehicle: water) 102 % of control; (dose: 12.0 mg/kg/injection, schedule: Q01DX001 (ip), vehicle: water) 108 % of control.

For the compound `CC1CC(C)OS(=O)O1` (configuration not stated), the T/C (dose: 44.0 mg/kg/injection, schedule: Q01DX Z (ip), vehicle: saline) was 104 % of control; the T/C (dose: 66.0 mg/kg/injection, schedule: Q01DX Z (ip), vehicle: saline) was 102 % of control; the T/C (dose: 75.0 mg/kg/injection, schedule: Q01DX001 (ip), vehicle: acetone) is 103 % of control; the T/C (dose: 100.0 mg/kg/injection, schedule: Q01DX Z (ip), vehicle: saline) was 91 % of control; the T/C (dose: 150.0 mg/kg/injection, schedule: Q01DX001 (ip), vehicle: acetone) was 103 % of control; the T/C (dose: 300.0 mg/kg/injection, schedule: Q01DX001 (ip), vehicle: acetone) is 101 % of control.

Turning to `CCCCCCCCOC(CN)C(Cl)(Cl)Cl` (configuration not stated), the T/C runs as follows: (dose: 6.25 mg/kg/injection, schedule: Q01DX009 (ip), vehicle: saline with Tween-80) 103 % of control; (dose: 6.25 mg/kg/injection, schedule: Q04DX003 (ip), vehicle: saline with Tween-80) 91 % of control; (dose: 12.5 mg/kg/injection, schedule: Q01DX009 (ip), vehicle: saline with Tween-80) 100 % of control; (dose: 12.5 mg/kg/injection, schedule: Q04DX003 (ip), vehicle: saline with Tween-80) 94 % of control; (dose: 25.0 mg/kg/injection, schedule: Q01DX009 (ip), vehicle: saline with Tween-80) 100 % of control; (dose: 25.0 mg/kg/injection, schedule: Q04DX003 (ip), vehicle: saline with Tween-80) 94 % of control.

Consider `CC1C(C)C23CCC12C(=O)C(O)C12CCC1(C(O)C3=O)C(C)C2C` (configuration not stated), for which the T/C runs as follows: (dose: 50.0 mg/kg/injection, schedule: Q01DX001 (ip), vehicle: saline) 100 % of control; (dose: 100.0 mg/kg/injection, schedule: Q01DX001 (ip), vehicle: saline) 109 % of control; (dose: 200.0 mg/kg/injection, schedule: Q01DX001 (ip), vehicle: saline) 111 % of control.

On to `CCOC(=O)C(O)c1ccc[nH]1` (configuration not stated), for which the T/C by setting is: (dose: 100.0 mg/kg/injection, schedule: Q01DX001 (ip), vehicle: saline with Tween-80) 115 % of control; (dose: 100.0 mg/kg/injection, schedule: Q04DX003 (ip), vehicle: saline with Tween-80) 89 % of control; (dose: 200.0 mg/kg/injection, schedule: Q01DX001 (ip), vehicle: saline with Tween-80) 115 % of control; (dose: 400.0 mg/kg/injection, schedule: Q01DX001 (ip), vehicle: saline with Tween-80) 111 % of control; (dose: 400.0 mg/kg/injection, schedule: Q04DX003 (ip), vehicle: saline with Tween-80) 95 % of control.
